According to the supplement of paper PMC10307832:

Experiments:
Experiment in all cases: relative viability (nuclei count vs DMSO), 5 days (fraction); higher = more cells survive
Linsitinib + Palbociclib = compound: C[C@]1(O)C[C@@H](c2nc(-c3ccc4ccc(-c5ccccc5)nc4c3)c3c(N)nccn32)C1 [Linsitinib] + CC(=O)c1c(C)c2cnc(Nc3ccc(N4CCNCC4)cn3)nc2n(C2CCCC2)c1=O [Palbociclib] (partner 0.5 µM)
Method in brief: (§1)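 Medians of duplicate plates are given as relative viability. That measure is the nuclei count in treated wells divided by the count in vehicle wells. Counts were taken on 4× images of lung cancer cell lines in 1536-well plates, 5 days after pin-tool dosing the day after seeding with one drug alone or a fixed anchor-drug dose plus five library-drug doses (not always all listed) in √10 steps.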

Linsitinib + Luminespib = compound: C[C@]1(O)C[C@@H](c2nc(-c3ccc4ccc(-c5ccccc5)nc4c3)c3c(N)nccn32)C1 [Linsitinib] + CCNC(=O)c1noc(-c2cc(C(C)C)c(O)cc2O)c1-c1ccc(CN2CCOCC2)cc1 [Luminespib] (partner 0.01 µM)
Method in brief: as §1

Linsitinib + Pemetrexed = compound: C[C@]1(O)C[C@@H](c2nc(-c3ccc4ccc(-c5ccccc5)nc4c3)c3c(N)nccn32)C1 [Linsitinib] + Nc1nc2[nH]cc(CCc3ccc(C(=O)N[C@@H](CCC(=O)O)C(=O)O)cc3)c2c(=O)[nH]1 [Pemetrexed] (partner 0.2 µM)
Method in brief: as §1

Ispinesib + Pemetrexed = compound: Cc1ccc(C(=O)N(CCCN)[C@@H](c2nc3cc(Cl)ccc3c(=O)n2Cc2ccccc2)C(C)C)cc1 [Ispinesib] + Nc1nc2[nH]cc(CCc3ccc(C(=O)N[C@@H](CCC(=O)O)C(=O)O)cc3)c2c(=O)[nH]1 [Pemetrexed] (partner 0.2 µM)
Method in brief: as §1

Cell Line	relative viability (Linsitinib + Palbociclib; first compound 0.01 µM)	relative viability (Linsitinib + Palbociclib; first compound 0.03162 µM)	relative viability (Linsitinib + Palbociclib; first compound 0.1 µM)	relative viability (Linsitinib + Palbociclib; first compound 1 µM)	relative viability (Linsitinib + Luminespib; first compound 0.01 µM)	relative viability (Linsitinib + Luminespib; first compound 0.03162 µM)	relative viability (Linsitinib + Luminespib; first compound 0.1 µM)	relative viability (Linsitinib + Luminespib; first compound 1 µM)	relative viability (Linsitinib + Pemetrexed; first compound 0.01 µM)	relative viability (Linsitinib + Pemetrexed; first compound 0.03162 µM)	relative viability (Linsitinib + Pemetrexed; first compound 0.1 µM)	relative viability (Linsitinib + Pemetrexed; first compound 1 µM)	relative viability (Ispinesib + Pemetrexed; first compound 0.001 µM)	relative viability (Ispinesib + Pemetrexed; first compound 0.003162 µM)	relative viability (Ispinesib + Pemetrexed; first compound 0.01 µM)	relative viability (Ispinesib + Pemetrexed; first compound 0.03162 µM)	relative viability (Ispinesib + Pemetrexed; first compound 0.1 µM)	relative viability (Linsitinib + Palbociclib; first compound 0.3162 µM)	relative viability (Linsitinib + Luminespib; first compound 0.3162 µM)	relative viability (Linsitinib + Pemetrexed; first compound 0.3162 µM)
NCI-H520	0.175	0.212	0.244	0.215	0.21	0.195	0.241	0.208	0.623	0.377	0.762	0.598	0.768	0.75	0.721	0.231	0.211	–	–	–
NCI-H522	1.01	0.83	1.04	0.977	1.55	1.18	1.18	1.2	0.831	0.839	1.01	0.839	0.961	0.975	0.859	0.586	0.364	0.673	0.961	0.652
NCI-H647	0.377	0.459	0.32	0.322	0.169	0.117	0.524	0.184	0.228	0.115	0.185	0.197	0.165	0.161	0.124	0.118	0.0916	0.171	–	0.172
NCI-H650	0.348	0.364	0.339	0.291	0.774	0.919	0.877	0.669	0.878	1.05	0.923	0.739	1.1	1.02	0.933	0.609	0.238	–	0.66	–
NCI-H661	0.41	0.433	0.381	0.412	0.924	1.05	0.948	1.01	0.904	0.738	0.9	0.895	0.933	0.969	0.92	0.596	0.212	0.379	0.945	0.935
NCI-H838	0.23	0.207	0.17	0.162	0.411	0.211	0.278	0.235	0.252	0.209	0.256	0.212	0.255	0.248	0.248	0.252	0.148	0.19	–	0.214
NCI-H1355	0.384	0.345	0.309	0.269	0.761	0.685	0.618	0.587	1.11	0.759	0.945	0.637	1.13	1.09	1.16	0.809	0.259	0.308	0.616	0.798
NCI-H1395	0.653	–	0.713	0.654	0.672	0.585	0.616	0.732	0.77	–	0.979	0.835	0.986	1.04	0.725	0.432	0.377	0.641	0.63	0.673
NCI-H1437	0.291	0.33	0.321	0.346	1.1	1.12	1.22	1.19	0.317	0.247	0.307	0.275	0.31	0.334	0.329	0.347	0.238	0.276	1.1	0.288
NCI-H1650	0.399	0.299	0.305	0.253	0.196	0.167	0.235	0.172	0.301	0.279	0.379	0.308	0.381	0.368	0.372	0.321	0.161	0.246	0.202	0.334
NCI-H1651	0.543	0.525	0.494	0.489	0.754	0.903	0.801	0.682	0.345	0.489	0.56	0.596	0.616	0.783	0.57	0.63	0.418	0.486	0.621	0.608
NCI-H1666	0.626	0.565	0.656	0.604	0.95	1.08	1.12	1.02	0.823	0.625	0.83	0.741	0.89	0.786	0.883	0.91	0.817	0.526	1.07	0.722
NCI-H1734	0.338	0.394	0.334	0.31	0.204	0.206	0.198	0.178	0.413	0.324	0.404	0.408	0.414	0.415	0.395	0.336	0.248	0.313	0.154	0.417
NCI-H1755	0.475	0.48	0.467	0.444	0.41	0.244	0.419	0.469	0.388	0.401	0.653	0.398	0.486	0.439	0.435	0.496	0.325	0.345	0.327	0.234
NCI-H1792	–	0.712	0.527	0.375	0.427	0.52	0.371	0.328	1.05	0.695	0.891	0.321	1.05	1.15	0.903	0.448	0.135	0.599	0.297	0.51
NCI-H1793	0.288	0.342	0.283	0.26	0.166	0.205	0.164	0.178	0.834	0.819	0.842	0.63	1.09	0.943	1.12	0.775	0.232	0.26	0.149	0.584

Cell Line	relative viability (Linsitinib + Palbociclib; first compound 0.01 µM)	relative viability (Linsitinib + Palbociclib; first compound 0.03162 µM)	relative viability (Linsitinib + Palbociclib; first compound 0.1 µM)	relative viability (Linsitinib + Palbociclib; first compound 1 µM)	relative viability (Linsitinib + Luminespib; first compound 0.01 µM)	relative viability (Linsitinib + Luminespib; first compound 0.03162 µM)	relative viability (Linsitinib + Luminespib; first compound 0.1 µM)	relative viability (Linsitinib + Luminespib; first compound 1 µM)	relative viability (Linsitinib + Pemetrexed; first compound 0.01 µM)	relative viability (Linsitinib + Pemetrexed; first compound 0.03162 µM)	relative viability (Linsitinib + Pemetrexed; first compound 0.1 µM)	relative viability (Linsitinib + Pemetrexed; first compound 1 µM)	relative viability (Ispinesib + Pemetrexed; first compound 0.001 µM)	relative viability (Ispinesib + Pemetrexed; first compound 0.003162 µM)	relative viability (Ispinesib + Pemetrexed; first compound 0.01 µM)	relative viability (Ispinesib + Pemetrexed; first compound 0.03162 µM)	relative viability (Ispinesib + Pemetrexed; first compound 0.1 µM)	relative viability (Linsitinib + Palbociclib; first compound 0.3162 µM)	relative viability (Linsitinib + Luminespib; first compound 0.3162 µM)	relative viability (Linsitinib + Pemetrexed; first compound 0.3162 µM)
NCI-H1915	0.514	0.595	0.473	0.307	0.796	0.61	0.835	0.797	0.558	0.291	0.495	0.486	0.518	0.528	0.516	0.294	0.113	0.489	0.707	0.588
NCI-H1944	0.398	0.418	0.286	0.296	0.755	0.793	0.727	0.532	0.597	0.574	0.661	0.492	0.682	0.61	0.588	0.389	0.218	0.303	0.637	0.426
NCI-H1975	0.571	0.588	0.517	0.39	0.24	0.263	0.281	0.127	0.287	0.239	0.293	0.289	0.328	0.327	0.322	0.277	0.155	0.429	0.302	0.287
NCI-H1993	0.646	0.668	0.484	0.456	0.751	0.852	0.835	0.498	0.59	0.621	0.565	0.404	0.652	0.677	0.637	0.587	0.404	0.686	0.794	0.449
NCI-H2009	0.119	0.203	0.19	0.24	1.01	1.01	1.06	1.06	1.15	0.944	1.09	0.942	1.13	1.06	1.03	0.936	0.44	0.105	–	0.946
NCI-H2023	0.4	0.245	0.37	0.26	0.599	0.627	0.879	0.501	0.257	0.134	0.238	0.176	0.241	0.241	0.19	0.144	0.115	0.256	0.646	0.0952
NCI-H2085	0.434	0.465	0.493	0.478	0.36	0.425	0.379	0.407	0.887	0.887	0.934	0.905	0.946	0.905	0.943	0.917	0.361	0.445	0.402	0.928
NCI-H2087	0.205	0.268	0.15	0.299	0.167	0.169	0.132	0.142	0.559	0.591	0.571	0.646	0.667	0.715	0.66	0.635	0.149	0.175	0.15	0.555
NCI-H2126	0.345	0.365	0.347	0.334	0.883	0.841	0.912	0.522	0.707	0.67	0.779	0.598	0.672	0.669	0.768	0.647	0.303	0.352	0.838	0.511
NCI-H2170	0.386	0.4	0.381	0.412	0.704	0.761	0.515	0.687	0.255	0.241	0.251	0.276	0.357	0.266	0.256	0.205	0.158	–	0.557	–
NCI-H2228	0.809	0.62	0.619	0.513	0.138	0.179	0.214	0.139	0.398	0.297	0.357	0.331	0.375	0.293	0.424	0.303	0.201	0.546	0.145	0.311
NCI-H2342	0.677	0.524	0.521	0.54	0.662	0.754	0.702	0.536	0.731	0.746	0.732	0.704	0.772	0.813	0.924	0.751	0.468	0.531	0.714	0.82
NCI-H2347	0.372	0.498	0.468	0.399	0.454	0.284	0.362	0.389	0.418	0.445	0.409	0.416	0.47	0.432	0.433	0.41	0.425	0.34	–	0.399
NCI-H2405	0.503	0.537	0.521	0.473	0.762	0.724	0.653	0.475	1.08	1.09	1.06	0.762	1.1	1.06	0.9	0.934	0.423	0.47	0.703	0.787
NCI-H3122	0.202	0.222	0.17	0.216	0.0915	0.1	0.0744	0.0925	0.18	0.177	0.212	0.196	0.196	0.221	0.198	0.217	0.107	–	0.0902	0.184
PC-3 [JPC-3]	0.548	0.544	0.558	0.493	0.716	0.69	0.764	0.712	1.13	1.04	1.2	0.665	1.29	1.39	1.02	0.674	0.384	0.471	0.669	0.891
